Experimental findings from patent US12478574B2, “Oral care compositions” (Colgate-Palmolive Company, priority 2016, dated 2025) are described below.

The nature of the data set: Atomic Absorption analysis of top and bottom layers for Zn2+. The data set is classed as physicochemical. The conditions noted are these: overall 1% ZnCl2 (4800 ppm). Here is the method:
Results are similar with Zn^2+ as the cation. […] The concentration of Zn^2+ in the top layer was measured as 1400 ppm Zn^2+ while the bottom was 8800 ppm, i.e., 6.3 fold higher concentration vs. the top.

Consider `[Cl-].[Cl-].[Zn+2]` [ZnCl2], for which the “Zn2+ concentration, bottom vs. the top” value came to 6.3 fold; the “concentration of Zn2+ in the bottom layer” value stood at 8800 ppm; the “concentration of Zn2+ in the top layer” value amounted to 1400 ppm.
